Results published in ChEMBL document CHEMBL1201862, “PubChem BioAssay data set” (2004).
Calls of active or inactive are those of the source.

Tests used:
[1] = molecular target: Luciferin 4-monooxygenase (Photinus pyralis, UniProt P08659); experiment: firefly luciferase enzyme inhibitors, dose response, biochemical, luminescence (AID 1891)
[2] = Luminescence Cell-Based Dose Confirmation HTS to Identify Inhibitors of Platelet Dense Granule Release. [Related pubchem assays: 1663 (Primary HTS), 1678 (Summary of Project)]; assay type: functional
HEK293 = experiment: inhibitors of LMP1-driven NF-kB reporter, dose response, cell-based, HEK293, luciferase, cherry-pick (AID 588343); assay type: functional; conditions: Homo sapiens
[3] = A549 cell cytotoxicity, dose response, cytotoxicity control, plate reader, cherry-pick, antagonist series (AID 743412); assay type: functional, cell-based
[4] = HepG2 cell cytotoxicity, dose response, cytotoxicity control, plate reader, cherry-pick, antagonist series (AID 743416); assay type: functional, cell-based
[5] = LGR2 antagonists, dose response, cell-based, HEK293, CRE-luciferase reporter, cherry pick, set 2 (AID 743343); assay type: functional;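 also: transfected cells were stimulated with diluted bursicon conditioned medium after compound addition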
[6] = MC4R antagonists, dose response, counter-screen for LGR2 antagonist project, cell-based, plate reader, cherry pick (AID 743444); assay type: functional;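 also: transfected HEK 293 cells stimulated with alpha-MSH peptide; potency of inhibitors of the alpha-MSH evoked signal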
[7] = HEK293 cell cytotoxicity, dose response, cytotoxicity control, plate reader, cherry-picked samples (AID 743446); assay type: functional, cell-based
Prothrombin = Prothrombin (Homo sapiens, UniProt P00734); experiment: Thrombin 1536 HTS Dose Response Confirmation. [Related pubchem assays: 1046 (Thrombin 1536 HTS; hits were confirmed in this assay)]; assay type: functional
[8] = molecular target: Eukaryotic translation initiation factor 4E (Mus musculus, UniProt P63073); experiment: eIF4E–eIF4G protein interaction inhibitors, dose response, biochemical, TR-FRET (AID 855); assay type: functional;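 also: potency for disrupting eIF4E binding to eIF4GI seen as loss of FRET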
Chain of Eukaryotic translation initiation factor 4E (P63073 whole entry): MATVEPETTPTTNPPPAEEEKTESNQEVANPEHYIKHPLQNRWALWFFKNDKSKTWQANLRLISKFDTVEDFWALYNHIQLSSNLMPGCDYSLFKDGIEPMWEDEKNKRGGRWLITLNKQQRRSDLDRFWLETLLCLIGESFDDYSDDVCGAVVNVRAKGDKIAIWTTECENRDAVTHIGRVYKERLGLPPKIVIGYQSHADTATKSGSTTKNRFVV

[9] = molecular target: Glyceraldehyde-3-phosphate dehydrogenase (Homo sapiens, UniProt P04406)
Chain of Glyceraldehyde-3-phosphate dehydrogenase (P04406 whole entry): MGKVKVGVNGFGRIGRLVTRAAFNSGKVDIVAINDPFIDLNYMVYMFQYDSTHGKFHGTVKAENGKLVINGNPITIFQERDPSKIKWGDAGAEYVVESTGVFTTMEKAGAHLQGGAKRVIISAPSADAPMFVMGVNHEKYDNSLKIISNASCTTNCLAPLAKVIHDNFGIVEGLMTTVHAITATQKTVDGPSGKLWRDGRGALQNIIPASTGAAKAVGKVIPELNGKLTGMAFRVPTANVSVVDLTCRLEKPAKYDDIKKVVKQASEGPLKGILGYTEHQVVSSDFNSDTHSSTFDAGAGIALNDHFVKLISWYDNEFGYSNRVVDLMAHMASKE

[10] = molecular target: T1, Alkaline phosphatase, tissue-nonspecific isozyme (Homo sapiens, UniProt P05186); experiment: human TNAP enzyme inhibitors, SAR follow-up, biochemical, luminescent, dose response (AID 1056)
T1 sequence (P05186 whole entry): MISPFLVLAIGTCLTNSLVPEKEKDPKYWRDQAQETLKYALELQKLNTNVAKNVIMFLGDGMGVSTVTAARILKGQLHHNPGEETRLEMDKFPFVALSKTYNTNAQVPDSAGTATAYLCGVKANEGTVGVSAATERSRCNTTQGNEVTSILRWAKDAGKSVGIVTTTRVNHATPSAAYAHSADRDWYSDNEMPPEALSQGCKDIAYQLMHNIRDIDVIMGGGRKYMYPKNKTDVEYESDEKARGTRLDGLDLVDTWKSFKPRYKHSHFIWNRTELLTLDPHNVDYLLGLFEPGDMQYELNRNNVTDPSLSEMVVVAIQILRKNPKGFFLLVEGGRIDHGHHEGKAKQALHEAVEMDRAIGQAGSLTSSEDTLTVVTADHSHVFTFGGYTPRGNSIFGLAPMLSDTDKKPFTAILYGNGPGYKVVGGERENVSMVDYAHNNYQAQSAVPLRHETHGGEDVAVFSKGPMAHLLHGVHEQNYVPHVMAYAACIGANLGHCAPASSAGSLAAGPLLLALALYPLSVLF

[11] = intracellular Trypanosoma cruzi inhibitors in host cells – cell-based, plate reader, cherry-pick samples, set 3, dose response (AID 651818); assay type: functional;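 also: compounds incubated with infected cells for about four days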
[12] = P. falciparum 3D7-ScDHODH growth inhibitors, dose response, SYBR Green, dry powder samples (AID 1159570); assay type: functional, cell-based;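 also: parasite growth measured after 72 hours of compound exposure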
[13] = P. falciparum Dd2 growth inhibitors, dose response, SYBR Green, cherry-picked samples (AID 1159567); assay type: functional, cell-based
[14] = P. falciparum Dd2 growth inhibitors, dose response, SYBR Green, dry powder samples (AID 1159566); assay type: functional, cell-based;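 also: potency for growth inhibition with lower SYBR green DNA signal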
[15] = P. falciparum ATP4 D1247Y mutant growth inhibitors, dose response, NITD609-resistant line, SYBR Green, dry powder (AID 1159571); assay type: functional, cell-based;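 also: parasites synchronized at ring stage by sorbitol before testing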
Protein Tat = molecular target: T2, Protein Tat (Human immunodeficiency virus type 1 group M subtype B (isolate HXB2)(HIV-1), UniProt P04608); assay type: functional;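 also: tat binding to TAR RNA read out by fluorescence polarization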
T2 sequence (P04608 whole entry): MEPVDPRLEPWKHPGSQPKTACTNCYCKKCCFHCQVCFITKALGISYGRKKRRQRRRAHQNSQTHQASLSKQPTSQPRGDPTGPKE

[16] = Luminescence-based cell-based high throughput dose response assay to identify activators of the DAF-12 from the parasite S. stercoralis (ssDAF-12).; assay type: functional
[17] = molecular target: T3, Oxysterols receptor LXR-beta (Homo sapiens, UniProt P55055); experiment: LXR agonists, Gal4 luciferase reporter, dose response, counter-screen for ssDAF-12 agonist project, cell-based, luminescence, HEK293, S. stercoralis campaign (AID 720737); assay type: functional; conditions: read-out: IC50 (the source's name)
T3 sequence (P55055 whole entry): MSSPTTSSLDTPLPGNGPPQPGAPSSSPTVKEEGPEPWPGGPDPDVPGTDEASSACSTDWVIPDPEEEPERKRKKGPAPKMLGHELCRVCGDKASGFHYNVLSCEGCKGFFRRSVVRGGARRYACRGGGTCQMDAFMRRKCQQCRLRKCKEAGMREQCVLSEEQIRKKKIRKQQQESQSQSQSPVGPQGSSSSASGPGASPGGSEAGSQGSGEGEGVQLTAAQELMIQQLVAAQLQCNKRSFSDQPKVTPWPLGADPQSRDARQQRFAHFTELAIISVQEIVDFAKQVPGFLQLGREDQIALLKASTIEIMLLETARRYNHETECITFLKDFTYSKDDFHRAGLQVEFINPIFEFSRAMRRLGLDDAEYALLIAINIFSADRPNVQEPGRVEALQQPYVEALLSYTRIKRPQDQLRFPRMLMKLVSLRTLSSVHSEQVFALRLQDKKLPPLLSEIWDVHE

[18] = molecular target: T3, Oxysterols receptor LXR-beta; assay type: functional, cell-based
cells [19] = experiment: cells
Bcl-2-like protein 10 = molecular target: T4, Bcl-2-like protein 10 (Homo sapiens, UniProt Q9HD36); experiment: displacers of TR3 peptide from Bcl-B, primary screen, selectivity assay for Bfl-1 inhibitor project, biochemical, fluorescence polarization, FITC-TR3 peptide (AID 748);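 also: fluorescence polarization from a fluorescein-labelled TR3 peptide binding purified Bcl-B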
T4 sequence (Q9HD36 whole entry): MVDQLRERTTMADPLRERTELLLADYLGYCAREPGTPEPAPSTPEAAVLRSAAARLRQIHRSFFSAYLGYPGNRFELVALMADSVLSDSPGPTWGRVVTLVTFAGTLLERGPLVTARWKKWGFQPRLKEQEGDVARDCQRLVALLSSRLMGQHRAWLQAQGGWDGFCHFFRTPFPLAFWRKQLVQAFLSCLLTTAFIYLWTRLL

[20] = HepG2 cell cytotoxicity, dose response, cytotoxicity control for non-replicating M. tuberculosis project (AID 489018); assay type: functional; conditions: Mycobacterium tuberculosis
cells [21] = assay type: functional
[22] = insulin promoter down-regulators in MIN6 cells, imaging, high-content screening, mouse beta cells (AID 1628); assay type: functional
[23] = cytotoxicity in MIN6 insulinoma cells, dose response, cytotoxicity control, cell-based, mouse insulinoma (AID 2122); assay type: functional;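 also: confirmatory high-throughput counterscreen run to flag cytotoxic compounds; mouse MIN-6 beta cells carrying an insulin promoter eGFP reporter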
Cytochrome P450 2C19 = Cytochrome P450 2C19 (Homo sapiens, UniProt P33261); experiment: Cytochrome panel assay with activity outcomes. Panel member name: p450-cyp2c19 Compounds with AC50 equal or less than 10 uM are considered active; assay type: functional
Chain of Cytochrome P450 2C19 (P33261 whole entry): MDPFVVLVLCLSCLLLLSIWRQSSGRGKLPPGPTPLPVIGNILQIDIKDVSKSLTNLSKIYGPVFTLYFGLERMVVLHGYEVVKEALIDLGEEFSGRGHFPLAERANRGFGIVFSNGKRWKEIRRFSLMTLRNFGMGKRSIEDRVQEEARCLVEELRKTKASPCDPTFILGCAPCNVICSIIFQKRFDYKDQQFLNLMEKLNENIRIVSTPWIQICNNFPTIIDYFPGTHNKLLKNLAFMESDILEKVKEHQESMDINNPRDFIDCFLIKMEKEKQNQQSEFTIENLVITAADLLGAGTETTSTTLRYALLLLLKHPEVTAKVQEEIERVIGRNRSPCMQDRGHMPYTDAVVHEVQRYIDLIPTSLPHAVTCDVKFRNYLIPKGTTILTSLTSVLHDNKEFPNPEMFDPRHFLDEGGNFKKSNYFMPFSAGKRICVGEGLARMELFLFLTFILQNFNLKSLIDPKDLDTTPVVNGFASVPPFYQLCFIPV

Cytochrome P450 2C9 = Cytochrome P450 2C9 (Homo sapiens, UniProt P11712)
Chain of Cytochrome P450 2C9 (P11712 whole entry): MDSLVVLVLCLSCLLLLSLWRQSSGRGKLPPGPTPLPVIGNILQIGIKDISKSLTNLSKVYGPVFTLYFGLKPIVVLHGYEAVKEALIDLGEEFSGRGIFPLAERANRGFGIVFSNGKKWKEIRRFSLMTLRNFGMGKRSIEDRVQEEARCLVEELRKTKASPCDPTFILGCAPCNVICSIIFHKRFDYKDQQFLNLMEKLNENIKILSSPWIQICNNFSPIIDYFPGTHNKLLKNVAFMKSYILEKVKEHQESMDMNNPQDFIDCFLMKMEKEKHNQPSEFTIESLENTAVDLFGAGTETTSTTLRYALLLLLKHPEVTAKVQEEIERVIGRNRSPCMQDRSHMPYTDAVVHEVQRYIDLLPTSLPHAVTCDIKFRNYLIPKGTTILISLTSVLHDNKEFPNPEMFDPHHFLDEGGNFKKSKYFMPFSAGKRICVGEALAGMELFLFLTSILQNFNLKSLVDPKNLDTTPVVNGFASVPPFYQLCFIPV

[24] = molecular target: DNA dC->dU-editing enzyme APOBEC-3A (Homo sapiens, UniProt P31941); experiment: Dose Response confirmation of small molecule APOBEC3A DNA Deaminase Inhibitors via a fluorescence-based single-stranded DNA deaminase assay. [Related pubchem assays (depositor defined):AID493011, AID493024]; assay type: functional
Chain of DNA dC->dU-editing enzyme APOBEC-3A (P31941 whole entry): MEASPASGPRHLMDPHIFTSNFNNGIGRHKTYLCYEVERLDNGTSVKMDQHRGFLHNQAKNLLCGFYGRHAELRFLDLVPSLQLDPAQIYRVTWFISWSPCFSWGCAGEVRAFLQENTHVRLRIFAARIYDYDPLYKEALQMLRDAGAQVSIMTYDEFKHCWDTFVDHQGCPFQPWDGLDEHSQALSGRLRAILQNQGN

[25] = molecular target: DNA dC->dU-editing enzyme APOBEC-3G (Homo sapiens, UniProt Q9HC16); assay type: functional;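 also: Dose-response counterscreen measuring inhibition of APOBEC3G DNA deaminase activity, run while confirming APOBEC3A inhibitors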
Chain of DNA dC->dU-editing enzyme APOBEC-3G (Q9HC16 whole entry, the tested form may be a part): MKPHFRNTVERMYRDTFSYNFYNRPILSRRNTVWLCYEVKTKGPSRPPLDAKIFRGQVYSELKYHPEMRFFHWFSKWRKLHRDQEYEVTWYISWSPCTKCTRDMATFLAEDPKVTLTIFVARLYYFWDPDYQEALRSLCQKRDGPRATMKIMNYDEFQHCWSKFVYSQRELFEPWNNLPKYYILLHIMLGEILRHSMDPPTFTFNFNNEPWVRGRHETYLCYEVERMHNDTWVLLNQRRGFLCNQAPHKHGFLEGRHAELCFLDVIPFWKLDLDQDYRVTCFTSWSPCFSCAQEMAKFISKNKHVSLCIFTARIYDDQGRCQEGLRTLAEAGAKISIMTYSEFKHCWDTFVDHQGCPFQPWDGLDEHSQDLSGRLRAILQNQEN

[26] = molecular target: T5, Carboxy-terminal domain RNA polymerase II polypeptide A small phosphatase 1 (Homo sapiens, UniProt Q9GZU7); experiment: inhibitors of CTDSP1, concentration-response testing, biochemical assay, absorbance-based, actives from ultra-high-throughput screening (AID 540297); assay type: functional
T5 sequence (Q9GZU7 whole entry): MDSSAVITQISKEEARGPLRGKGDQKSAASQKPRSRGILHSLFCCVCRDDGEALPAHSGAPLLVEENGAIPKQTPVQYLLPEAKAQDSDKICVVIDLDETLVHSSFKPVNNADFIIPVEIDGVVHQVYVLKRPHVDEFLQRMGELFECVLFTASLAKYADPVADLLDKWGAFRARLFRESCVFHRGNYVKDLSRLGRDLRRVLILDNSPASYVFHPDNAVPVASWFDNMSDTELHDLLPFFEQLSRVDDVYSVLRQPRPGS

[27] = HepG2 cell cytotoxicity, dose response, cytotoxicity control, cherry-picked samples (AID 1159577); assay type: functional, cell-based

Chain of Luciferin 4-monooxygenase (P08659 whole entry): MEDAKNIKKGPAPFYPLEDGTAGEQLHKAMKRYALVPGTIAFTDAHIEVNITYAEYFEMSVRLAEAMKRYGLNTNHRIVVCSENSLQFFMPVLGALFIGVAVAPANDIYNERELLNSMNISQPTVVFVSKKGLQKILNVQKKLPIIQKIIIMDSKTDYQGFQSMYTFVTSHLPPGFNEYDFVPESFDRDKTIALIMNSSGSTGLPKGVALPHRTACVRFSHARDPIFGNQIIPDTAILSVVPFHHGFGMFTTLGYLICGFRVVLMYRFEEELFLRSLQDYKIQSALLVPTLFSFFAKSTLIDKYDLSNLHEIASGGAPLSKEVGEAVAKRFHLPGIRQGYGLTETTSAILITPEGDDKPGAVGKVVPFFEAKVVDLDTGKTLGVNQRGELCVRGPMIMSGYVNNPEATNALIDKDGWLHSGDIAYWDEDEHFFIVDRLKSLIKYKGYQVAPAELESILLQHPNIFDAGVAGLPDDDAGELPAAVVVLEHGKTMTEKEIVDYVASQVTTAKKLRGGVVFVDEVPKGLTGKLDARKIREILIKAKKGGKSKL

CCOc1ccc(C(=O)Nc2cc(C)ccn2)cc1
EC50 [1]: 1.19 µM (active)
EC50 [2]: 2.45 µM (active)
AC50 (HEK293): 2.17 µM (active)
AC50 [3]: 21 µM (active)
AC50 [4]: 24.6 µM (active)
AC50 [5]: 4.55 µM (active)
AC50 [6]: 2.97 µM (active)
AC50 [7]: 22.1 µM (active)

COc1cccc(-c2cc(C(=O)Nc3c(C)nn(Cc4ccccc4)c3C)no2)c1
IC50 (Prothrombin): > 50 µM (not active)

O=c1cc(CCl)nc2sc3ccccc3n12
IC50 [8]: 50 µM (inactive)

O=C1[C@H]2CC=CC[C@H]2C(=O)N1c1nnc(Cc2ccc(F)cc2)[nH]1
IC50 [9]: > 100 µM (not active)
IC50 [10]: 4.2 µM (active)

C[C@@H]1CN([C@H](C)CO)C(=O)c2cccc(NC(=O)Nc3cccc4ccccc34)c2O[C@@H]1CN(C)C(=O)Nc1ccc(C(F)(F)F)cc1
AC50 [11]: 7.71 µM (active)
AC50 [12]: 1.15 µM (active)
AC50 [13]: 1.59 µM (active)
AC50 [14]: 1.37 µM (active)
AC50 [15]: 1.21 µM (active)

O=C1C(Cl)=C(Cl)C(=O)N1c1nnc(Cc2ccccc2)[nH]1
IC50 [9]: > 100 µM (not active)
IC50 [10]: 3.24 µM (active)

O=C(O)c1ccc(/N=C/c2nc(-c3ccco3)oc2O)cc1
IC50 (Prothrombin): > 50 µM (not active)

Cc1cc(C)c(S(=O)(=O)NCC2CCC(C(=O)N3CCC4(CC3)OCCO4)CC2)c(C)c1 (centres undefined)
IC50 (Protein Tat): > 100 µM (active)

COc1ccc(-c2cn3ccc4ccccc4c3n2)cc1
IC50 [16]: > 67.5 µM (inactive)
EC50 [17]: > 67.5 µM (inactive)
EC50 [18]: > 67.5 µM (inactive)
EC50 (cells [19]): > 67.5 µM (inactive)

COc1cc(-c2nc3ccccc3c(=O)n2N)cc(OC)c1OC
IC50 [16]: > 67.5 µM (inactive)
EC50 [17]: > 67.5 µM (inactive)

CCOc1ccc(C(=O)Nc2ccc(N3CCN(C)CC3)cc2)cc1Br
IC50 (Bcl-2-like protein 10): 0.558 µM (active)
CC50 [20]: > 20 µM (active)
IC50 (cells [21]): 31.4 µM (active)

Cc1ccc(Cn2cnc3ccccc32)cc1
IC50 [22]: 4.89 µM (active)
IC50 [23]: 4.02 µM (active)

COc1ccc(CN2CCN(C(=O)CC(C)C)CC2)c(OC)c1OC
IC50 [8]: > 64 µM (inactive)
AC50 (Cytochrome P450 2C19): 25.1 µM (inconclusive)
AC50 (Cytochrome P450 2C9): inconclusive

COc1ccc(N2CC(C(=O)NCc3ccco3)CC2=O)cc1 (centres undefined)
IC50 [24]: 39.6 µM (active)
IC50 [25]: 21.2 µM (active)

Cc1cc(O)c(/C=N/OCc2ccc(Cl)cc2Cl)c(=O)o1
IC50 [8]: 50 µM (inactive)

Cc1cc(C(=O)NCc2ccc(C(=O)O)o2)c(C)o1
IC50 [24]: 31 µM (active)
IC50 [25]: 45.9 µM (active)
IC50 [26]: 4.04 µM (active)

CCCNC(=O)N1[C@H](CO)[C@H](c2ccc(C3=CCCCC3)cc2)[C@H]1CNC(C)C
AC50 [13]: 5.26 µM (active)
AC50 [27]: 39.6 µM (active)

C[n+]1ccccc1/C=C/c1ccccc1Cl
IC50 [24]: 2.25 µM (active)
IC50 [25]: 2.41 µM (active)

COc1ccc(CCNC(=O)/C=C/c2ccco2)cc1
IC50 (Protein Tat): > 100 µM (active)

C[C@@H]1CN([C@@H](C)CO)C(=O)c2cc(C#CCc3ccccc3)cnc2O[C@H]1CN(C)CC1CCCC1
AC50 [13]: 1.31 µM (active)
AC50 [27]: 14.2 µM (active)

Cc1ccc(-n2c(SCC(=O)NCC3CCCO3)nc3nnc(C)c-3c2N)cc1Cl (centres undefined)
IC50 [22]: 2.21 µM (active)
IC50 [23]: 4.6 µM (active)

COc1ccccc1C#Cc1ccc([C@H]2[C@@H](C#N)N(C(=O)C3CC3)[C@H]2CO)cc1
AC50 [12]: 1.35 µM (active)
AC50 [14]: 0.692 µM (active)
AC50 [15]: 1.69 µM (active)

Cc1cc[n+]2c3c(cccc13)CCC2
IC50 (Bcl-2-like protein 10): 63.2 µM (inactive)
